Experiments:
Assay in all cases: relative viability (nuclei count vs DMSO), 5 days (fraction); higher = more cells survive
Shikonin + Navitoclax = compound: CC(C)=CC[C@@H](O)C1=CC(=O)c2c(O)ccc(O)c2C1=O [Shikonin] + CC1(C)CCC(c2ccc(Cl)cc2)=C(CN2CCN(c3ccc(C(=O)NS(=O)(=O)c4ccc(N[C@H](CCN5CCOCC5)CSc5ccccc5)c(S(=O)(=O)C(F)(F)F)c4)cc3)CC2)C1 [Navitoclax] (partner 0.5 µM)
Procedure, shortened: (§1)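 Values are medians from duplicate plates. Each reflects relative viability, defined as the nuclei count of treated wells over that of vehicle wells. Lung cancer cell lines in 1536-well plates were pin-tool dosed one day after seeding with one drug alone or with a fixed anchor-drug dose plus five library-drug doses (not always all listed) in √10 steps, then fixed, stained and imaged at 4× after 5 days.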

[1] = compound: CC(C)N(CCCNC(=O)Nc1ccc(C(C)(C)C)cc1)C[C@H]1O[C@@H](n2ccc3c(N)ncnc32)[C@H](O)[C@@H]1O + Cc1cc(Nc2cc(N3CCN(C)CC3)nc(Sc3ccc(NC(=O)C4CC4)cc3)n2)n[nH]1 [Tozasertib] (partner 0.1 µM)
Procedure, shortened: as §1

Shikonin = compound: CC(C)=CC[C@@H](O)C1=CC(=O)c2c(O)ccc(O)c2C1=O [Shikonin]
Procedure, shortened: (§2)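 Following overnight incubation at 37 °C, lung cancer cell lines in 1536-well plates were pinned with five library-drug doses (not always all listed) in √10 steps on vehicle-anchored plates. The cells then spent 5 days without medium change before a combined fix, permeabilisation and Hoechst stain, 4× imaging and MetaXpress nuclear counts. Viability is the treated-to-vehicle ratio of nuclei, taken as the median across plates. Only plates with control CV below 25% and at least one doubling passed.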

[2] = compound: CC(C)N(CCCNC(=O)Nc1ccc(C(C)(C)C)cc1)C[C@H]1O[C@@H](n2ccc3c(N)ncnc32)[C@H](O)[C@@H]1O
Procedure, shortened: as §2

UMC-11
relative viability (Shikonin + Navitoclax; first compound 0.01 µM): 0.282
relative viability (Shikonin + Navitoclax; first compound 0.1 µM): 0.324
relative viability (Shikonin + Navitoclax; first compound 0.3162 µM): 0.31
relative viability (Shikonin + Navitoclax; first compound 1 µM): 0.318
relative viability ([1]; first compound 0.08 µM): 0.185
relative viability ([1]; first compound 0.253 µM): 0.193
relative viability ([1]; first compound 0.8 µM): 0.231
relative viability ([1]; first compound 2.53 µM): 0.218
relative viability ([1]; first compound 8 µM): 0.175
relative viability (Shikonin; 0.01 µM): 0.943
relative viability (Shikonin; 0.1 µM): 0.993
relative viability (Shikonin; 0.3162 µM): 1.07
relative viability (Shikonin; 1 µM): 1.08
relative viability ([2]; 0.08 µM): 0.953
relative viability ([2]; 0.253 µM): 0.875
relative viability ([2]; 0.8 µM): 0.82
relative viability ([2]; 2.53 µM): 0.999
relative viability ([2]; 8 µM): 1.01

— the supplement of paper PMC10307832
